Experimental data reported in PubChem BioAssay AID463203 (Broad Institute, 2010).
Activity calls are given as the source filed them.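 The calls were made as follows: active = more than half of replicate measurements showing over 20% loss of kinase signal relative to plate controls; inconclusive = some but at most half of replicates over 20% loss; inactive = no replicate over 20% signal loss.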

target: Glycogen synthase kinase-3 alpha (Homo sapiens) (UniProt P49840); experiment: concentration-response blocking of human GSK3A – biochemical, luminescence, cell-free homogeneous, retest, dose response (AID 463203); conditions: GSK-3 alpha enzyme, ADP-Glo luminescence, 60 min
Sequence (P49840 whole entry, looked up): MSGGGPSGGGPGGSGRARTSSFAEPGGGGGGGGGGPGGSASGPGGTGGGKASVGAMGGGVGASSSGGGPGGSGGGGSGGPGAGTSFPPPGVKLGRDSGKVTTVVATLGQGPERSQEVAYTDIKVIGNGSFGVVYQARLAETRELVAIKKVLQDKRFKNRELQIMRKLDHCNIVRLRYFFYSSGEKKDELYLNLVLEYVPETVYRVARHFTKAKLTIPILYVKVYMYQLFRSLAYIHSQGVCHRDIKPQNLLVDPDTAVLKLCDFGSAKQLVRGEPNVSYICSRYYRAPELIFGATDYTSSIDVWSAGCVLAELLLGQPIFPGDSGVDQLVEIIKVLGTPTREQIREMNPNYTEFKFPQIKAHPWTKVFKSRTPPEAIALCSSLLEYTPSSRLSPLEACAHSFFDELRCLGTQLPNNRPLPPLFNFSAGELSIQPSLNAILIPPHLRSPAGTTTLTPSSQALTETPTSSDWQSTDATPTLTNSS

Row | SMILES | AC50
1 | COc1cc(O)c(NC(C)=O)c2nonc12 | > 30 µM (inactive)
2 | CCCC1=C(C(=O)OCC)C(c2cccnc2)n2nc(C)nc2N1 (configuration not stated) | > 30 µM (inactive)
3 | CCOC(=O)c1nnn(-c2nonc2N)c1-c1ccc(Br)cc1 | 12.4 µM
4 | O=C(Cn1c(NCCO)nc2ccccc21)NCC1CCCO1 (configuration not stated) | > 30 µM (inactive)
5 | O=C1OCCC/C1=C\c1ccc2c(c1)OCO2 | 23.3 µM
6 | O=C(OCC1OC2OC3(CCCCC3)OC2C2OC3(CCCCC3)OC12)c1ccccc1 (configuration not stated) | > 30 µM (inactive)
7 | Cc1ccc2oc(=O)c3cnn(CC(=O)N4CCc5ccccc5C4)c3c2c1 | > 30 µM (inactive)
8 | CCOC(=O)c1ccc(NC(=S)NCCc2ccccc2)cc1 | > 30 µM (inactive)
9 | CCn1c(C)nc2cc(-c3nc4n(n3)Cc3ccccc3-4)ccc21 | 16.1 µM
10 | Cn1c2ccc(F)cc2c2nc3ccccc3nc21 | > 30 µM (inactive)
11 | Cc1ccc(S(=O)(=O)Nc2ccc(O)c3cccnc23)cc1 | > 30 µM (inactive)
12 | N#Cc1c(-c2ccccc2Cl)c2c([nH]c1=O)-c1ccccc1OC2 | > 30 µM (inactive)
13 | O=c1oc2cc(O)ccc2c2ccccc12 | > 30 µM (inactive)
14 | CC(=O)Nc1ccc(NC(=O)c2cc(-n3cnnc3)ccc2Cl)cc1 | > 30 µM (inactive)
15 | O=c1[nH]nnc2c1sc1nc(N3CCOCC3)c3c(c12)CCCC3 | 13.4 µM
16 | COc1ccc(-c2cc(C(=O)N3CCN(c4ccccc4OC)CC3)no2)cc1 | > 30 µM (inactive)
17 | O=[N+]([O-])c1ccc(NCCCN2CCOCC2)c([N+](=O)[O-])c1 | > 30 µM (inactive)
18 | CC1CCN(Cc2c(C(=O)N/N=C/c3ccc(C(F)(F)F)cc3)nnn2-c2nonc2N)CC1 | > 30 µM (inactive)
19 | Cc1ccccc1Cn1c(-c2ccc(=O)[nH]c2)nc2ccccc21 | > 30 µM (inactive)
20 | CC(=O)C(Sc1ccc2nnc(-c3ccncc3)n2n1)C(C)=O | > 30 µM (inactive)
21 | CCCC1=C(C(=O)OCC)C(c2ccc(O)cc2)n2ncnc2N1 (configuration not stated) | 11.2 µM
22 | C=CCc1cc(/C=N/n2cnnc2)cc(OCC)c1O | > 30 µM (inactive)

Row | SMILES | AC50
23 | O=C1N=C(C=c2ccc(=Cc3[nH]c(=O)[nH]c3O)cc2)C(=O)N1 | 15.5 µM
24 | CNC(=O)NCC12CC3CC(CC(C3)C1)C2 | > 30 µM (inactive)
25 | Cc1cc2[nH]c(=S)[nH]c2cc1C | > 30 µM (inactive)
26 | Cc1ccc(C(=O)N/N=c2\oc3ccccc3cc2C(N)=O)cc1 | > 30 µM (inactive)
27 | COc1cc(/C=C2/S/C(=N/S(=O)(=O)Cc3ccccc3)NC2=O)c([N+](=O)[O-])cc1OC | > 30 µM (inactive)
28 | CCN(CC)CCCN(Cc1cc2cc3c(cc2[nH]c1=O)OCO3)C(=O)Nc1ccccc1OC | > 30 µM (inactive)
29 | CCN1/C(=C/C(C)=O)Sc2ccc(OC)cc21 | 16.5 µM
30 | O=C(O)c1ccc(Nc2nc(-c3cccnc3)nc3ccccc23)cc1 | 9.3 µM
31 | Brc1ccccc1C1=Nn2c(nnc2-c2ccco2)SC1 | 17.5 µM
32 | O=C1NC(=Nc2ccccc2Cl)S/C1=C\c1cc([N+](=O)[O-])ccc1O | 3.23 µM
33 | COCCCNc1nc2nonc2nc1N1C[C@H]2CC[C@H]1C2 | > 30 µM (inactive)
34 | Nc1c(C(=O)O)cnc2c(-c3ccc(Cl)cc3)cnn12 | 15.8 µM
35 | CCOC(=O)c1cnc2cc(F)c(F)cc2c1N1CCN(C)CC1 | > 30 µM (inactive)
36 | O=[N+]([O-])c1ccccc1/C=N/n1c(-c2cccnc2)n[nH]c1=S | 28 µM
37 | COc1ccc(C2C3(C#N)C(N)=NC(OC)(OC)C23C#N)cc1 (configuration not stated) | > 30 µM (inactive)
38 | Cc1ccc(C2CC(=O)N3CN(Cc4ccco4)CSC3=C2C#N)cc1 (configuration not stated) | > 30 µM (inactive)
39 | CCCCc1cc(=O)oc2cc(O)ccc12 | 25.9 µM
40 | CSc1ccc(CN2CCN(Cc3ccc([N+](=O)[O-])cc3)CC2)cc1 | > 30 µM (inactive)
41 | COC(=O)[C@H]1[C@H](CCc2ccccc2)NC(=O)N(Cc2ccccc2)[C@@H]1C | > 30 µM (inactive)
42 | CN(C)c1cccc(C(=O)N/N=C/c2ccccc2F)c1 | > 30 µM (inactive)
43 | O=C(CNC(=O)c1ccccc1)N/N=C/C=C/c1ccccc1 | > 30 µM (inactive)
44 | C/C(=N\NC(=O)c1nnn(-c2nonc2N)c1-c1cccs1)c1ccc(O)cc1 | 1.17 µM

Row | SMILES | AC50
45 | CCCNc1nc(Cl)nc(Nc2ccc(Cl)cc2)n1 | > 30 µM (inactive)
46 | COc1ccc(C2CC(=O)N3CN(c4ccccc4F)CSC3=C2C#N)cc1OC (configuration not stated) | > 30 µM (inactive)
47 | O=C(Nc1cccc(-c2cnc3ccccc3n2)c1)c1cccc(NC(=O)c2ccco2)c1 | > 30 µM (inactive)
48 | CCn1c2ccc(F)cc2c2nc3ccccc3nc21 | > 30 µM (inactive)
49 | Cc1cc(OCc2cc(C(=O)O)oc2C)c2c3c(c(=O)oc2c1)CCCC3 | 21.6 µM
50 | CC(C(=O)Nc1nccs1)c1ccc([N+](=O)[O-])cc1 (configuration not stated) | 20.5 µM
51 | CCN(CC)CCNC(=O)c1ccc(NC(=O)C2CCN(c3ncnc4sc(C)c(C)c34)CC2)cc1 | 22.8 µM
52 | CCOc1cc(/C=N/NC(=O)N/N=C/c2ccc(O)c(OCC)c2)ccc1O | > 30 µM (inactive)
53 | Cc1ccc(OCc2nnnn2-c2ccccc2)cc1 | > 30 µM (inactive)
54 | CC1(C)Cc2cccc(C(=O)Nc3ccncc3)c2O1 | 5.8 µM
55 | Cc1cccc(N2CC(C(=O)Nc3nccs3)CC2=O)c1C (configuration not stated) | > 30 µM (inactive)
56 | Cc1cc(/C=N/O)c(C)n1-c1ccc(Br)cc1 | > 30 µM (inactive)
57 | Cc1ccc(-c2nnc(N3CCN(C(=O)COc4ccccc4)CC3)c3ccccc23)cc1 | > 30 µM (inactive)
58 | O=C(N/N=C/c1ccccn1)c1cccc(NC(=O)c2ccccc2Cl)c1 | 15.9 µM
59 | N#CC(C#N)=Cc1c[nH]c(=O)c(C#N)c1Nc1ccccc1 | 9.4 µM
60 | COc1ccccc1Nc1nc(NCCCCO)nc(N2CCCC2)n1 | > 30 µM (inactive)
61 | Cn1c(N=Nc2ccccc2)nc2ccccc21 | 21.1 µM
62 | COc1ccc(-c2cc(C(=O)N3CCN(c4ccccc4)CC3)no2)cc1OC | > 30 µM (inactive)
63 | O=C(CSc1nnc(-c2ccncc2)s1)Nc1ccccc1 | > 30 µM (inactive)
64 | COC(=O)c1cc2cc(Cl)ccc2nc1SC | > 30 µM (inactive)
65 | COc1ccc(CCNc2nc(C)c(C(C)=O)s2)cc1OC | > 30 µM (inactive)
66 | CCOC(=O)c1sc(NC(=O)C2CC2)nc1C | 15 µM

Row | SMILES | AC50
67 | COc1ccc(-c2nc3ncccn3c2Nc2ccccc2)cc1 | > 30 µM (inactive)
68 | CCOC(=O)c1nc2sc3c(c2c(=O)[nH]1)CCC(C)C3 (configuration not stated) | > 30 µM (inactive)
69 | CC(=O)Nc1ccc(-c2csc(NCc3ccccc3)n2)cc1 | > 30 µM (inactive)
70 | CN1/C(=C/C2CC(=O)NC2=O)C(C)(C)c2ccccc21 (configuration not stated) | 5.14 µM
71 | COc1cccc(CN2CCN(Cc3cc(OC)c(OC)cc3[N+](=O)[O-])CC2)c1 | > 30 µM (inactive)
72 | COc1ccc(-n2c(O)c(C=NCc3ccc4c(c3)OCO4)c(=O)[nH]c2=O)cc1 | > 30 µM (inactive)
73 | CCOC(=O)c1nc(NCc2ccccc2C)c2ccccc2n1 | > 30 µM (inactive)
74 | O=C(CCSc1nc(-c2ccco2)cc(C(F)(F)F)n1)NCc1cccs1 | > 30 µM (inactive)
75 | Cc1ccc(CNc2nc(N)c([N+](=O)[O-])c(NCc3ccccc3)n2)cc1 | > 30 µM (inactive)
76 | COc1ccccc1C(=O)Nc1nc(C)cc(C)n1 | > 30 µM (inactive)
77 | COc1ccc(C(=O)Nc2nc(C)cc(C)n2)cc1 | > 30 µM (inactive)
78 | c1ccc2c3c([nH]c2c1)-c1[nH]ncc1CC3 | 25.1 µM
79 | CCOc1ccc(Cn2nnc(C(=O)Nc3ccc(OC)cc3OC)c2N)cc1 | > 30 µM (inactive)
80 | NC1=NC(=O)/C(=C/c2ccc(-c3ccc(S(N)(=O)=O)cc3)o2)S1 | 0.397 µM
81 | CC(=O)Nc1cccc(-c2csc(Nc3ccc(C)cn3)n2)c1 | > 30 µM (inactive)
82 | Cc1cccc(C(=O)Nc2cccc(-c3cnc4ccccc4n3)c2)c1 | > 30 µM (inactive)
83 | CCOC(=O)c1ccc(NC(=O)CSCc2ccco2)cc1 | > 30 µM (inactive)
84 | CCOC(=O)c1cc(C)sc1NC(=O)CCC(=O)O | > 30 µM (inactive)
85 | COc1ccc(/C=C(/NC(=O)c2ccc([N+](=O)[O-])cc2)C(=O)NC(C)(C)C)cc1 | > 30 µM (inactive)
86 | CC(=NCCCn1ccnc1)c1c(O)n(C)c(=O)n(C)c1=O | > 30 µM (inactive)
87 | O=C(N/N=C/c1ccc(O)c(O)c1)NC12CC3CC(CC(C3)C1)C2 | > 30 µM (inactive)
88 | COc1ccc(-c2cc(C(F)(F)F)nc(SCC(=O)NCc3ccco3)n2)cc1OC | > 30 µM (inactive)

Row | SMILES | AC50
89 | Oc1ccc(/C=N/NC(=S)N/N=C/c2ccc(O)cc2)cc1 | 23.5 µM
90 | CCCCC(=O)Nc1sc2c(c1C(N)=O)CCC2 | > 30 µM (inactive)
91 | CCC(C)[C@H](NC(=O)NCc1ccc(Cl)cc1)C(=O)OC (some centres not stated) | > 30 µM (inactive)
92 | N#C/C(=N\Nc1c(Cl)cccc1Cl)C(=O)NN | 5.86 µM
93 | CCn1ncc([N+](=O)[O-])c1C(=O)N1CCCC1 | > 30 µM (inactive)
94 | Cc1cc(-c2ccccc2)c2c3c(c(-c4ccccc4)n2n1)c(=O)n(C)c(=O)n3C | > 30 µM (inactive)
95 | CC1CC(=O)c2cnc(NCC3CCCO3)nc2C1 (configuration not stated) | > 30 µM (inactive)
96 | COc1cc(/C=N\NC(=O)c2ccc(-c3ccccc3)cc2)cc(Br)c1O | > 30 µM (inactive)
97 | COc1ccc(-n2c(C)c([N+](=O)[O-])c3ccc(O)c(CN4CCCCC4)c32)cc1 | 19.1 µM
98 | COc1cccc(C2CC(=O)Nc3cc(OC)c(OC)c(OC)c32)c1OC (configuration not stated) | > 30 µM (inactive)
99 | Cc1ccccc1OCCSc1nnc(C)n1-c1ccccc1 | > 30 µM (inactive)
100 | COc1ccc(C(=O)c2ccccc2Cl)cc1 | > 30 µM (inactive)
101 | CC(=O)C1C(c2ccccc2)c2c(n[nH]c2C)CC1(C)O (configuration not stated) | > 30 µM (inactive)
102 | O=c1cc(-c2ccc(O)c(O)c2)oc2c1ccc1ccccc12 | 5.66 µM
103 | CC(=O)Nc1ncc(Cc2cccc(Cl)c2Cl)s1 | > 30 µM (inactive)
104 | COc1cccc(C(=O)NCC(=O)OCC(=O)c2ccccc2)c1 | > 30 µM (inactive)
105 | COc1ccc(C=O)cc1OS(=O)(=O)c1ccccc1[N+](=O)[O-] | > 30 µM (inactive)
106 | COC(=O)c1sccc1NC(=O)c1ccccc1 | > 30 µM (inactive)
107 | CCc1nnc(NC(=O)c2cccc(S(=O)(=O)N3CC(c4ccccc4)CC3=O)c2)s1 (configuration not stated) | > 30 µM (inactive)
